Data set [1] in a line: Solubility in aqueous media (observation). In kind it is physicochemical.
The target of data set [2] is T1, interaction of the aggregated Aβ peptide with a monoclonal anti-Aβ IgG (Homo sapiens, UniProt P05067).
T1 construct: Aggregated Aβ peptides were generated from synthetic Aβ(1-42) peptides
Nature of the data set: Semi-quantitative ELISA: inhibition of IgG-Aβ fibril interactions. In kind it is binding. Particulars: anti-Aβ IgG clone 6E10. The protocol:
The association of the synthesized compounds with aggregated Aβ peptides was tested using a semi-quantitative ELISA based assay developed by Yang and co-workers. See P. Inbar, J. Yang, Bioorg. Med. Chem. Lett. 2006, 16:1076-1079; P. Inbar, C. Q. Li, S. A. Takayama, M. R. Bautista, J. Yang, ChemBioChem 2006, 7:1563-1566; P. Inbar, M. R. Bautista, S. A. Takayama, J. Yang, Anal. Chem. 2008, 80:3502-3506. The assay is based on screening for molecules that inhibit the interaction of the aggregated Aβ peptide with a monoclonal anti-Aβ IgG raised against residues 1-17 of Aβ. Table 4 provides the concentrations of the compounds corresponding to 50% inhibition (IC50) of the IgG-Aβ interactions as well as the maximal percentage of the IgG's inhibited from binding to the fibrils. […] The maximum inhibition, a measure of the extent of surface coating of the aggregated peptide by the compounds, was determined to be between 40-98% (Table 4). See P. Inbar, J. Yang, Bioorg. Med. Chem. Lett. 2006, 16:1076-1079; P. Inbar, C. Q. Li, S. A. Takayama, M. R. Bautista, J. Yang, ChemBioChem 2006, 7:1563-1566; P. Inbar, M. R. Bautista, S. A. Takayama, J. Yang, Anal. Chem. 2008, 80:3502-3506. […] Specifically, while the maximum inhibition is between 81-98% for the phenyl compounds, it decreases to 58% for the longer naphthalene compound 11 and to 40% for the more conjugated stilbene 19.
Aggregated Aβ peptides were generated from synthetic Aβ(1-42) peptides by dissolving 30 μg of peptide in 90 μL of nanopure water (pH 5-6) and incubating at 37° C. for ≧72 h without agitation. Each well of a 96-well plate (well volume 0.4 mL; clear, flat bottom polypropylene) was coated for 3 h at 25° C. with 50 μL of 1.3 μM solution of Aβ peptides in phosphate-buffered saline (PBS, 10 mM NaH2PO4/Na2HPO4, 138 mM NaCl, 2.7 mM KCl, pH 7.4). After removal of the excess sample, 50 μL solutions of compounds in PBS buffer (various concentrations were obtained by diluting a stock solution with PBS buffer) were incubated in the wells for 12 h. […] The excess solutions were then removed and all wells were blocked for 30 min by adding 300 μL of a 1% (w/v) solution of bovine serum albumin in PBS buffer (BSA/PBS). On occasion, an additional blocking step was performed prior to incubation with solutions of small molecules. The blocking solution was discarded and the wells were washed once with 300 μL of PBS buffer. Wells were incubated for 1 h with 50 μL of a 1.1 nM solution (in 1% BSA/PBS, dilution 1:6000) of anti-Aβ IgG (clone 6E10, monoclonal, mouse), followed by removal of the solution. The wells were washed twice with 300 μL of PBS buffer and incubated for 60 min with 50 μL of the secondary IgG (anti-mouse IgG H+L, polyclonal, rabbit) conjugated with alkaline phosphatase (6.8 nM in 1% BSA/PBS, dilution 1:1000). The solution was discarded, and the wells were washed twice with 300 μL PBS buffer. Bound secondary IgGs were detected by the addition of 50 μL of a p-nitrophenyl phosphate solution (2.7 mM, in 100 mM diethanol amine/0.5 mM magnesium chloride, pH 9.8). Absorbance intensities were determined at 405 nm using a UV-vis spectroscopic plate reader (Sprectramax 190, Molecular Devices, Sunnyvale, Calif.). Each run was performed five times and averaged. Error bars represent standard deviations. Graphs were plotted and fitted with the sigmoid curve fitting.
On the technique in general: An ELISA detects its analyte on a solid surface through an enzyme-linked reagent.

The target of data set [3] is T2, pre-aggregated Aβ(1-42) peptide (Homo sapiens, UniProt P05067).
T2 construct: preaggregated Aβ(1-42) peptides
Kind of data set: Apparent binding constant (Kd) by double reciprocal fluorescence plot. Particulars: compound 10, 5, 2.5, 1.25 μM; 5.0 μM pre-aggregated Aβ(1-42); PBS pH 7.4. The protocol:
We also measured the apparent binding constants (Kd) of the compounds (in concentrations of 10, 5, 2.5 and 1.25 μM) to 5.0 μM pre-aggregated Aβ(1-42) peptide. The Kd can be measured from the double reciprocal of the fluorescent maximum and the concentration of the compound. See H. LeVine III, Protein Sci. 1993, 2:404-410. […] [22,] See LeVine, Id.; Lockhart, L. Ye, D. B. Judd, A. T. Merritt, P. N. Lowe, J. L. Morgenstern, G. Z. Hong, A. D. Gee, J. Brown, J. Biol. Chem. 2005, 280:7677-7684; M. Biancalana, K. Makabe, A. Koide, S. Koide, J. Mol. Biol. 2008, 383:205-213; M. Biancalana, K. Makabe, A. Koide, S. Koide, J. Mol. Biol. 2009, 385:1052-1063. The Kd corresponds to the −1/(x-intercept) of the linear regression.
Pre-aggregated Aβ(1-42) (5 μM final concentration) was mixed with various concentrations of compounds described herein (10, 5, 2.5, 1.25 μM) in PBS buffer (pH 7.4) and their fluorescence was measured. The negative inverse of the x-intercept of the linear regression, that was drawn between the double reciprocal of the fluorescence intensity maximum and concentration of the compound, represents the compound binding constant (Kd) to Aβ(1-42).
In order to quantify the dissociation constants (Kd's) for the binding of fluorescent compounds with aggregated β-amyloid peptides, we used the method described by LeVine (see H. LeVine III, Protein Sci. 1993, 2, 404-410). This method is similar to the method described by Benesi-Hildebran (see C. Yang, L. Liu, T. W. Mu, Q. X. Guo, Anal. Sci. 2000, 16, 537-539). Here, the fluorescence of the compound was measured with and without the addition of the aggregated peptides in solution. The relative fluorescence enhancement of the compound upon binding to aggregated β-amyloid peptides was determined by taking the difference between F (fluorescence after the addition of aggregated peptides) and F (fluorescence before the addition of aggregated peptides).
In order to estimate the binding constant (Kd) for the compound-Aβ complexes from the fluorescence studies, we made the following assumptions: • 1. All compounds are completely in solution and free of any significant competing binding process such as self-aggregation. • 2. The concentration of unbound compounds can be approximated as close to the total concentration of the compounds. • 3. The binding sites in the aggregated Aβ peptides are not completely occupied at the concentration of Aβ-binding compounds used for the fluorescence studies (i.e., the experiments are carried out under non-saturated binding conditions).
FIG. 2 and FIG. 6 provide double reciprocal plots of the measured fluorescence versus total concentration of compound [GO]. Assuming that [G] can be approximated as close to [GO] (assumption 2), we can obtain estimates for the Kd's of the compound-Aβ complexes from the x-intercept of the linear fits of the data for each compound.

pKd: −log10 of the molar value.

T1 sequence (P05067 672-713 limits assumed): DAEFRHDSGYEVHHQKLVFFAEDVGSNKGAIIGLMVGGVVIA
T2 sequence (P05067 672-713 limits assumed): as above

Consider `COCCOCCOCCOC(=O)/C(C#N)=C/c1ccc(/C=C/c2ccc(N(C)C)cc2)cc1` [Cmpd 19, (E)-2-(2-(2-methoxyethoxyl)ethoxy)ethyl-cyano-3-(4-(4(dimethylamino)styryl)phenyl)acrylate], for which the “Solubility in aqueous media” value in data set [1] is on record as “poor solubility in aqueous media”. In data set [2] (50% inhibition of IgG-Aβ interactions), the IC50 amounted to 33.6 µM. Further, the “Maximum % inhibition (ELISA)” value in data set [2] (maximal percentage of IgG inhibited from binding to the fibrils) was 40%. Besides, the pKd in data set [3] was 5.85.

As usually defined, the IC50 is the concentration at which inhibition is half-maximal. Broadly, the pKd is the negative decadic logarithm of the Kd, by convention in mol/L.

The values above are taken from patent US9551722B2, “Amyloid binding agents” (The Regents of the University of California, priority 2009, dated 2017).
